From patent US10221174B2, “N-(phenylsulfonyl)benzamides and related compounds as BCL-2 inhibitors” (THE REGENTS OF THE UNIVERSITY OF MICHIGAN, priority 2016, dated 2019)
Like-named read-outs stand apart in the source and are kept apart here.

Columns and labels:
Mcl-1 [1] = biological target: T1, Mcl-1 (Homo sapiens (Human), UniProt Q07820); experiment: FP saturation binding of fluorescent probe to Mcl-1; details: 2 nM probe
Method: (§1) Fluorescence polarization values were measured using the Infinite M-1000 plate reader (Tecan U.S., Research Triangle Park, N.C.) in Microfluor 1 96-well, black, round-bottom plates (Thermo Scientific). […] Plates were mixed and incubated at room temperature for 1 hour with gentle shaking to assure equilibrium. […] Equilibrium dissociation constants (Kd) were then calculated by fitting the sigmoidal dose-dependent FP increases as a function of protein concentrations using Graphpad Prism 5.0 software (Graphpad Software, San Diego, Calif.).

Molm13 cells = experiment: Molm13 cell viability, CCK-8 assay; format: cell-based; details: Homo sapiens, MOLM-13, 96 h, CCK-8, 4 days, read-out: Molm13 IC50 (Bcl-2 dependent)
Method: Molm13 cells were obtained from Deutsche Sammlung von Mikroorganismen und Zellkulturen GmbH (DSMZ). They were used within three months of thawing fresh vials. Cells were maintained in the recommended culture medium with 10% FBS at 37° C. and an atmosphere of 5% CO2.
200 μL of a Molm13 cell suspension (10000 cells/well) in culture medium were seeded into 96-well plates and cultured overnight. Each tested compound was serially diluted in culture medium, and 20 μL of the compound dilution was added to the corresponding well of the cell plate. After the addition of the tested compound, the cells were incubated at 37° C. in an atmosphere of 5% CO2 for 4 days. […] The plates were read at 450 nm on the microplate spectrophotometer (Epoch2, BioTek). The readings were normalized to the vehicle cells, and the IC50 was calculated by nonlinear regression analysis using GraphPad Prism 5 software.

Bcl-2 = Bcl-2 (Homo sapiens (Human), UniProt P10415)
Sequence of Bcl-2 (P10415 whole entry): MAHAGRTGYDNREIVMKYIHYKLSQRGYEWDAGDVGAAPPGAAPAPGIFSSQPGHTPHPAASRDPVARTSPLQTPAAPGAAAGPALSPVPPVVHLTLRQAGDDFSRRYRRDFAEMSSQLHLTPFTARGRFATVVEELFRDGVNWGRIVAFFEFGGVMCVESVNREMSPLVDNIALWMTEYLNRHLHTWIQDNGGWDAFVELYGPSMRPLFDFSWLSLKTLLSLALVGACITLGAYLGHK
Method: as §1
(§2) Mixtures of 5 μl of the tested inhibitors in DMSO and 120 μl of pre-incubated protein/probe complexes in the assay buffer were added into assay plates and incubated at room temperature for 2 hours with gentle shaking. […] FP values were measured as described above. IC50 values were determined by nonlinear regression fitting of the competition curves.

RS4;11 cells = experiment: RS4;11 cell viability, CCK-8 assay; format: cell-based; details: Homo sapiens, RS4-11, 96 h, CCK-8, 4 days, read-out: RS4, 11 IC50 (Bcl-2 dependent)
Method: RS4;11 cells were obtained from American Type Culture Collection (ATCC). They were used within three months of thawing fresh vials. Cells were maintained in the recommended culture medium with 10% FBS at 37° C. and an atmosphere of 5% CO2.
The effect of representative Compounds of the Disclosure on cell viability was determined using Cell Counting Kit-8 (CCK-8) assay (Dojindo, Rockville, Md.) according to the manufacturer's instructions. 200 μL of a RS4;11 cell suspension (10000 cells/well) in culture medium were seeded into 96-well plates and cultured overnight. Each tested compound was serially diluted in culture medium, and 20 μL of the compound dilution was added to the corresponding well of the cell plate. After the addition of the tested compound, the cells were incubated at 37° C. in an atmosphere of 5% CO2 for 4 days. At the end of 4 days, 10 μL of CCK-8 solution was added to each well of the plate and incubated for 1-4 hours. The plates were read at 450 nm on the microplate spectrophotometer (Epoch2, BioTek). The readings were normalized to the vehicle cells, and the IC50 was calculated by nonlinear regression analysis using GraphPad Prism 5 software.

Bcl-xL = Bcl-xL (Homo sapiens (Human), UniProt Q07817); experiment: Fluorescence polarization competitive binding assay, Bcl-xL; details: FP competition, 10 nM Bcl-xL, 2 nM Flu-BAK probe; read-out: Inhibitory activity IC50 Bcl-xL
Sequence of Bcl-xL (Q07817 whole entry): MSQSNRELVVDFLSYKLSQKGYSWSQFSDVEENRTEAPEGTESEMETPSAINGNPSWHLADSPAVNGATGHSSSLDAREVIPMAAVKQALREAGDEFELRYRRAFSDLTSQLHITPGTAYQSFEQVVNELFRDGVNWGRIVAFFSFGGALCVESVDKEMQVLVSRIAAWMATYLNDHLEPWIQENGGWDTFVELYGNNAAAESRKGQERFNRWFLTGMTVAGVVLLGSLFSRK
Method: as §1, §2

Pharmacokinetics in rats = format: in vivo; details: for F(AUC0-t): oral 20 mg/kg vs IV 2 mg/kg; for MRT inf / AUC(0-t) / clearance / Cmax / Tmax / Vd / half-life: rat, in vivo; for clearance: read-out: CL (iv) (converted); for Vd: read-out: Vss (iv)
Method: The pharmacokinetics of ABT-199 and representative Compounds of the Disclosure were evaluated in rats at an IV dose of 2 mg/kg and an oral dose of 20 mg/kg.

[2] = system: RS4;11 leukemia xenograft; experiment: RS4;11 leukemia xenograft model; format: in vivo; details: nude mice, oral gavage
Method: The antitumor activity of Cpd. No. 6 (compound 6) was also studied in the RS4;11 leukemia xenograft model. Human RS4;11 tumor cells were injected into nude mice and treatment started on day 11 when the tumor size reached approximately 100 mm^3. Cpd. No. 6 was administered via oral gavage at indicated doses and schedules. Cpd.

Mcl-1 [3] = biological target: T1, Mcl-1; experiment: Fluorescence polarization competitive binding assay, Mcl-1; details: FP competition, 20 nM Mcl-1, 2 nM Flu-BID probe; read-out: Inhibitory activity IC50 Mcl-1
Method: as §1, §2

[4] = IV 2 mg/kg, read-out: AUC0-t IV
[5] = IV 2 mg/kg, read-out: t1/2 IV (converted)
[6] = oral 20 mg/kg, read-out: AUC0-t PO
[7] = oral 20 mg/kg, read-out: Cmax PO
[8] = oral 20 mg/kg, read-out: Tmax PO
[9] = oral 20 mg/kg, read-out: t1/2 PO (converted)

T1 sequence (Q07820 whole entry): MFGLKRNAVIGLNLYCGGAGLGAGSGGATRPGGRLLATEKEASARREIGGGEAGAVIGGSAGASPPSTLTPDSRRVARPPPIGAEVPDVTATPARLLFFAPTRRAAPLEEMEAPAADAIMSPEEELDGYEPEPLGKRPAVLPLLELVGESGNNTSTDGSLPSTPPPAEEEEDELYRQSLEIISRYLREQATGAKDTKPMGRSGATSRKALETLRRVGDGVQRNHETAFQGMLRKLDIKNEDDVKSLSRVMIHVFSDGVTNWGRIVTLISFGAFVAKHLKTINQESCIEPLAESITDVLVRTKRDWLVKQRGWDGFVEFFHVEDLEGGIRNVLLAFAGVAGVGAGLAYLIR

Compound	IC50 (Molm13 cells) [µM]	IC50 (Bcl-2) [µM]	IC50 (RS4;11 cells) [µM]	IC50 (Bcl-xL) [µM]	further results
Flu-BID: Fluorescein labeled BID (79-99) peptide, fluorescent probe in FP assay for Mcl-1	–	–	–	–	Kd (Mcl-1 [1]): 0.0069 ± 0.0009 µM
O=C(NS(=O)(=O)c1ccc(NCC2CCOCC2)c([N+](=O)[O-])c1)c1ccc(N2CCN(CC3=C(c4ccc(Cl)cc4)CC4(CC3)COC4)CC2)cc1Oc1cnc2[nH]ccc2c1 [Cpd. No. 2, 2-((1H-pyrrolo[2,3-b]pyridin-5-yl)oxy)-4-(4-((6-(4-chlorophenyl)-2-oxaspiro[3.5]non-6-en-7-yl)methyl)piperazin-1-yl)-N-((3-nitro-4-(((tetrahydro-2H-pyran-4-yl)methyl)amino)phenyl)sulfonyl)benzamide]	0.085	0.00076	0.0055	0.0106	–
CNc1ccc(S(=O)(=O)NC(=O)c2ccc(N3CCN(CC4=C(c5ccc(Cl)cc5)CC5(CCC5)CC4)CC3)cc2Oc2cnc3[nH]ccc3c2)cc1[N+](=O)[O-] [compound 10, 2-((1H-pyrrolo[2,3-b]pyridin-5-yl)oxy)-4-(4-((6-(4-chlorophenyl)spiro[3.5]non-6-en-7-yl)methyl)piperazin-1-yl)-N-((4-(methylamino)-3-nitrophenyl)sulfonyl)benzamide]	0.182	0.0033	0.032	0.014	–
O=C(NS(=O)(=O)c1cc([N+](=O)[O-])c2cn(CC3CCOCC3)nc2c1)c1ccc(N2CCN(CC3=C(c4ccc(Cl)cc4)CC4(CCC4)CC3)CC2)cc1Oc1cnc2[nH]ccc2c1 [compound 63, 2-((1H-pyrrolo[2,3-b]pyridin-5-yl)oxy)-4-(4-((6-(4-chlorophenyl)spiro[3.5]non-6-en-7-yl)methyl)piperazin-1-yl)-N-((4-nitro-2-((tetrahydro-2H-pyran-4-yl)methyl)-2H-indazol-6-yl)sulfonyl)benzamide]	–	0.0013	0.055	0.0071	–
O=C(NS(=O)(=O)c1cc([N+](=O)[O-])c2[nH]c(C3CC3)nc2c1)c1ccc(N2CCN(CC3=C(c4ccc(Cl)cc4)CC4(CCC4)CC3)CC2)cc1Oc1cnc2[nH]ccc2c1 [compound 59, 2-((1H-pyrrolo[2,3-b]pyridin-5-yl)oxy)-4-(4-((6-(4-chlorophenyl)spiro[3.5]non-6-en-7-yl)methyl)piperazin-1-yl)-N-((2-cyclopropyl-7-nitro-1H-benzo[d]imidazol-5-yl)sulfonyl)benzamide]	0.468	0.005	0.065	0.0207	–
O=C(NS(=O)(=O)c1ccc(NCC2CCOCC2)c([N+](=O)[O-])c1)c1ccc(C2CCN(CC3=C(c4ccc(Cl)cc4)CC4(CCC4)CC3)CC2)cc1Oc1cnc2[nH]ccc2c1 [compound 12, 2-((1H-pyrrolo[2,3-b]pyridin-5-yl)oxy)-4-(1-((6-(4-chlorophenyl)spiro[3.5]non-6-en-7-yl)methyl)piperidin-4-yl)-N-((3-nitro-4-(((tetrahydro-2H-pyran-4-yl)methyl)amino)phenyl)sulfonyl)benzamide]	0.253	0.0044	0.078	–	–
O=C(NS(=O)(=O)c1ccc(NC[C@H]2COCCO2)c([N+](=O)[O-])c1)c1ccc(N2CCN(CC3=C(c4ccc(Cl)cc4)CC4(CCC4)CC3)CC2)cc1Oc1cnc2[nH]ccc2c1 [Cpd. No. 6, (S)-N-((4-(((1,4-dioxan-2-yl)methyl)amino)-3-nitrophenyl)sulfonyl)-2-((1H-pyrrolo[2,3-b]pyridin-5-yl)oxy)-4-(4-((6-(4-chlorophenyl)spiro[3.5]non-6-en-7-yl)methyl)piperazin-1-yl)benzamide]	–	–	0.0055	–	AUC0-∞ IV (Pharmacokinetics in rats; IV 2 mg/kg): 2915 n · gh/mL; AUC0-∞ PO (Pharmacokinetics in rats; oral 20 mg/kg): 13475 n · gh/mL; F(AUC0-t) (Pharmacokinetics in rats): 46.2%; MRT inf (Pharmacokinetics in rats; IV 2 mg/kg): 2.09 h; AUC(0-t) (Pharmacokinetics in rats; [4]): 2900 ng·h/mL; clearance (Pharmacokinetics in rats; IV 2 mg/kg): 11.6 mL/min/kg; Cmax (Pharmacokinetics in rats; IV 2 mg/kg, read-out: Cmax IV): 4170 ng/mL; Tmax (Pharmacokinetics in rats; IV 2 mg/kg, read-out: Tmax IV): 0.083 h; Vd (Pharmacokinetics in rats; IV 2 mg/kg): 1.44 L/kg; half-life (Pharmacokinetics in rats; [5]): 4.39 h; AUC(0-t) (Pharmacokinetics in rats; [6]): 13400 ng·h/mL; Cmax (Pharmacokinetics in rats; [7]): 2620 ng/mL; Tmax (Pharmacokinetics in rats; [8]): 2.67 h; half-life (Pharmacokinetics in rats; [9]): 3.12 h; mouse weight ([2]; FIG. 4): does not cause weight loss in mice; antitumor activity (tumor growth) ([2]; treatment from day 11, FIG. 3): inhibits tumor growth; IC50 (Mcl-1 [3]): > 5 µM
CN(C)c1ccc(S(=O)(=O)NC(=O)c2ccc(N3CCN(CC4=C(c5ccc(Cl)cc5)CC5(CCC5)CC4)CC3)cc2Oc2cnc3[nH]ccc3c2)cc1[N+](=O)[O-] [compound 11, 2-((1H-pyrrolo[2,3-b]pyridin-5-yl)oxy)-4-(4-((6-(4-chlorophenyl)spiro[3.5]non-6-en-7-yl)methyl)piperazin-1-yl)-N-((4-(dimethylamino)-3-nitrophenyl)sulfonyl)benzamide]	1.02	0.0119	0.061	0.0778	–
O=C(NS(=O)(=O)c1ccc(NC[C@@H]2COCCO2)c([N+](=O)[O-])c1)c1ccc(C2=CCN(CC3=C(c4ccc(Cl)cc4)CC4(CCC4)CC3)CC2)cc1Oc1cnc2[nH]ccc2c1 [compound 1, (R)-N-((4-(((1,4-dioxan-2-yl)methyl)amino)-3-nitrophenyl)sulfonyl)-2-((1H-pyrrolo[2,3-b]pyridin-5-yl)oxy)-4-(1-((6-(4-chlorophenyl)spiro[3.5]non-6-en-7-yl)methyl)-1,2,3,6-tetrahydropyridin-4-yl)benzamide]	0.047	–	0.003	–	–
CC(C)c1nc2cc(S(=O)(=O)NC(=O)c3ccc(N4CCN(CC5=C(c6ccc(Cl)cc6)CC6(CCC6)CC5)CC4)cc3Oc3cnc4[nH]ccc4c3)cc([N+](=O)[O-])c2[nH]1 [compound 58, 2-((1H-pyrrolo[2,3-b]pyridin-5-yl)oxy)-4-(4-((6-(4-chlorophenyl)spiro[3.5]non-6-en-7-yl)methyl)piperazin-1-yl)-N-((2-isopropyl-7-nitro-1H-benzo[d]imidazol-5-yl)sulfonyl)benzamide]	0.25	0.0038	0.035	0.0192	–
O=C(NS(=O)(=O)c1ccc(NCC2CCOCC2)c([N+](=O)[O-])c1)c1ccc(N2CCN(CC3=C(c4ccc(Cl)cc4)CC4(CCC4)CC3)CC2)cc1Oc1cnc2[nH]ccc2c1 [Cpd. No. 3, 2-((1H-pyrrolo[2,3-b]pyridin-5-yl)oxy)-4-(4-((6-(4-chlorophenyl)spiro[3.5]non-6-en-7-yl)methyl)piperazin-1-yl)-N-((3-nitro-4-(((tetrahydro-2H-pyran-4-yl)methyl)amino)phenyl)sulfonyl)benzamide]	–	0.0012	0.026	0.0137	AUC0-∞ IV (Pharmacokinetics in rats; IV 2 mg/kg): 2683 n · gh/mL; AUC0-∞ PO (Pharmacokinetics in rats; oral 20 mg/kg): 7775 n · gh/mL; F(AUC0-t) (Pharmacokinetics in rats): 29.0%; MRT inf (Pharmacokinetics in rats; IV 2 mg/kg): 2.37 h; AUC(0-t) (Pharmacokinetics in rats; [4]): 2660 ng·h/mL; clearance (Pharmacokinetics in rats; IV 2 mg/kg): 12.8 mL/min/kg; Cmax (Pharmacokinetics in rats; IV 2 mg/kg, read-out: Cmax IV): 4200 ng/mL; Tmax (Pharmacokinetics in rats; IV 2 mg/kg, read-out: Tmax IV): 0.083 h; Vd (Pharmacokinetics in rats; IV 2 mg/kg): 1.86 L/kg; half-life (Pharmacokinetics in rats; [5]): 4.94 h; AUC(0-t) (Pharmacokinetics in rats; [6]): 7630 ng·h/mL; Cmax (Pharmacokinetics in rats; [7]): 1320 ng/mL; Tmax (Pharmacokinetics in rats; [8]): 2 h; half-life (Pharmacokinetics in rats; [9]): 4.46 h
